Among the data in ChEMBL document CHEMBL1142524, “Virtual screening to successfully identify novel janus kinase 3 inhibitors: a sequential focused screening approach” (J Med Chem, 2008) are IC50 values, retold here.

The target in this assay is T1, Tyrosine-protein kinase JAK3 (Homo sapiens, UniProt P52333).
T1 sequence (P52333 whole entry): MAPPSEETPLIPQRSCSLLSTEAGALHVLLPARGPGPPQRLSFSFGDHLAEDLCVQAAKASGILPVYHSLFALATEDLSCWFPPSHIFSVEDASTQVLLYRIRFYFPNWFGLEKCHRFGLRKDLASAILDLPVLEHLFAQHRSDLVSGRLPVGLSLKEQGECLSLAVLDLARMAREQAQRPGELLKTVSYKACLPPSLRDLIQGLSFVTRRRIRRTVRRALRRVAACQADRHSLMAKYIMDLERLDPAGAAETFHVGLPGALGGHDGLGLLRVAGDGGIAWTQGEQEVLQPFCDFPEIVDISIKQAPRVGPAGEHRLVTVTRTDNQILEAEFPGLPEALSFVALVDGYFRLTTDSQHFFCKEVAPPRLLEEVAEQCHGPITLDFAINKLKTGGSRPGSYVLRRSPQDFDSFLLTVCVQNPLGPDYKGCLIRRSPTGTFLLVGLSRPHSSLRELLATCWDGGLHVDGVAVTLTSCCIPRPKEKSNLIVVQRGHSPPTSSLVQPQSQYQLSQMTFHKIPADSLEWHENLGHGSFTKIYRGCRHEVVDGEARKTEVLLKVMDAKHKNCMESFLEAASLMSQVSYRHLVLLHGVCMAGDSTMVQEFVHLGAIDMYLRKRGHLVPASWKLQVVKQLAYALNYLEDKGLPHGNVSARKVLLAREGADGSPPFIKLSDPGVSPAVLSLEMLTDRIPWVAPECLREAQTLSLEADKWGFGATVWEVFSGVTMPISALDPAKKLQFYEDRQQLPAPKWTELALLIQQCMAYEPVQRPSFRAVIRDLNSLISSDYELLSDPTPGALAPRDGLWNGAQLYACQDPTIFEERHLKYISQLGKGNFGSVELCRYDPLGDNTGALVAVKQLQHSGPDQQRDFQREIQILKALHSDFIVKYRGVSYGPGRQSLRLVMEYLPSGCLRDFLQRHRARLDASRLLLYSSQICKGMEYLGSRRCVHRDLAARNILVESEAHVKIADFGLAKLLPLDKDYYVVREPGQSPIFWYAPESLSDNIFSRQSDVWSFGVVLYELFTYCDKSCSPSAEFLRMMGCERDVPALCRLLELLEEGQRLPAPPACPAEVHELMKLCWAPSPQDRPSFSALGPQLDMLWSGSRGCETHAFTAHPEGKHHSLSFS
As to the kind of experiment: Inhibition of JAK3.
With `CN1CCN(c2ccc(Nc3ncc4[nH]nc(-c5ccccc5)c4n3)cc2)CC1`, half-maximal inhibition (IC50) required 98 nM.
Compound `Cc1cc(C(=O)Nc2ccc3[nH]ncc3c2)nn1-c1cccc(C(F)(F)F)c1` yielded an IC50 of 2640 nM.
As for `Oc1c2ccccc2c2c3c(cccc13)N=N2` [SP-600125], the IC50 was found to be 957 nM. This IC50 is about 2.8-fold lower than that of the compound before.
